In patent publication US10005815B2, “Biologically cleavable tetrapeptide linking agents” (Arrowhead Madison Inc., priority 2015, dated 2018):

Tests used:
[1] = system: liver lysosomal (enzyme) extract; test: Digestion assay with rat liver lysosomal extract; format: biochemical; conditions: for velocity of digestion, addition of phenylalanine: 54 vs 57, 56 vs 59; for rate and time to completion of digestion, proline at A1 changed to alanine: 33 vs 30, 39 vs 23; for Velocity, Sample / Velocity, Normalized: Table 3; for Velocity, Sample: FCitFP linker with various R5
Procedure: Various amino acid combinations, tetrapeptides, were used to link various first moieties (R^5) and an AENA report group second compound (R^6) to form assay substrates (substrates). Cleavage rate of the peptides were evaluated by analysis of digestion of the substrates in the presence of rat lysosomal extract.
Reporting groups were coupled to the C-terminus of the peptide substrates as described above for UV-vis monitoring to explore the influence of amino acid sequence on kinetics of peptide degradation by HPLC. N-(2-aminoethyl)-4-nitroaniline (AENA) or N-(aminoethyl)-5-napthylamine-1-sulfonic acid (EDANS) were used as reporting groups for HPLC monitoring as neither absorptivity nor lambda maximum were affected for either after cleavage from the peptide. The N-terminus of each peptide substrate was modified with either methoxy polyethylene glycol (PEG12) or N-acetyl galactosamine (NAG(OR)3) (FIG. 1).
Proteolytic digestion experiments were carried out at a fixed substrate concentration (0.51 μmol) using liver lysosomal (enzyme) extract (0.45 μg/μL) in a 25 mM MES solution buffered to pH 5 containing 1% CHAPS and 1.8 mM DTT incubated at 37° C. Enzyme extract was activated in the presence of DTT for 15 minutes at 37° C. prior to addition of AENA labeled peptide substrates. At various time points, up to 26 h, 20 μL aliquots were removed and acidified to a pH of 3 with TFA. Analysis of fractions was performed using HPLC with a Aquasil C18 reverse-phase column (250×4.6, Thermofisher, Waltham, Mass.), monitored at 390 nm and 335 nm for AENA and EDANS respectively. Elution was performed with a gradient of acetonitrile and water buffered with 0.1% formic acid. Generation of unmodified reporter molecule was measured. To minimize freeze thaw cycles the lysosomal extract was dispensed into multiple aliquots prior to storage at −80° C. A new aliquot was employed for each study and used immediately upon thawing. Lysosomal extract was sourced from female Hans Wistar rats by differential density gradient centrifugation (Graham et al. 2000). Protein concentration of lysosomal extract was determined by standard BCA protein assay protocols. […]
Rate (also called velocity of degradation or velocity) was extrapolated during early linear turnover (Table 2). As used herein, rate is defined as the linear rate of reporting group generation at less than 50% completion (digestion rate was assumed to be linear at less than 50% completion). For substrates in which cleavage deviated from consecutive first order kinetics, the percent of reporting group liberated at the endpoint of digestion was used as a metric for comparison.

[2] = system: Factor VII; test: Serum Factor VII activity after DPC-mediated siRNA delivery in mice; format: in vivo; conditions: for effectiveness as modifying agent in DPC-mediated siRNA delivery: Factor VII knockdown; for Relative F VII activity: polymer-siRNA conjugate modified with the PEG-peptide agent and CDM-NAG, 1 mg/kg polymer, 0.25 mg/kg siRNA, day 5
Procedure: PEG tetrapeptide modifying agents were synthesized by using a PEG group at R^5 and an activated ester at R^7 (formula V). Membrane active polyamines (see below) were modified with Factor VII siRNA, CDM-NAG and the indicated tetrapeptide (45b, 46) or tripeptide control (47) modifying agents as previously described (U.S. Pat. Nos. 8,137,695 and 8,426,554) to form a dynamic polyconjugate delivery polymer. 1 mg/kg polymer conjugated to 0.25 mg/kg siRNA was then injected into mice. At day 5, samples were collected and assayed for Factor VII. Knockdown of Factor VII requires cleavage of the modifying agent from the polyamine at a rate similar to the previously described CDM masking agents and dipeptide-PABC masking agents. […] For dynamic polyconjugate delivery polymers modified with PEG12 functionalized tetrapeptides, the order of increasing knockdown in vivo (45b>46>47) correlated with in vitro kinetic results. Validation of the in vitro model for kinetic evaluation was shown by the results obtained in animal studies.
Polyacrylate EAB in 5 mM pH 8.0 HEPES buffer was modified 1.5 wt % with a N-hydroxysuccinimidyl activated PEG4 azide (Azido-dPEG4-NHS ester from Quanta Biodesign) to provide azide groups for subsequent attachment of siRNA. The azide-modified polymer was then diluted to 5 mg/mL in 60 mg/mL HEPES base. To this solution was added 15 mg/mL (3 wt equivalents) of the indicated protease-cleavable PEG modifying reagents (the described herein tetrapeptide agents or PEG12-FCit-PABC-PNP (8426554) to modify 40-50% of available amine groups. After 1 h, DBCO-modified rodent factor VII siRNA (0.25 wt eq relative to polymer) was added to polymer solution. After incubation overnight, conjugates were further modified by addition of molar excess relative to available amine groups of an N-acetylgalactosamine derivative CDM-NAG, NAG-A^4-A^3-A^2-A^1-NHS or NAG-ACit-PABC-PNP (U.S. Pat. No. 8,426,554, Rozema et al. 2015, Carlson et al. 2015), and incubated for 30 min to reversibly modify remaining polymer EAB amines.
Male Wistar Han rats and female ICR mice, 6 to 8 weeks old, were obtained from Harlan Sprague-Dawley, (Indianapolis, Ind.). Animals were handled in accordance with animal used protocols approved by the Animal Care and Use Committee at Arrowhead Madison Inc. Rodents were maintained on a 12 hours light/dark cycle with free access to water and food (Harlan Teklad Rodent Diet, Harlan, Madison, Wis.). Animals were injected with 1 mg/kg polymer conjugated to 0.25 mg/kg siRNA. Samples were collected 5 days post injection.
FVII activity in serum was measured with a chromogenic method using a test kit (BIOPHEN VII, Aniara, Mason, Ohio) following manufacturer's recommendations. Absorbance of colorimetric development was measured using a Tecan Safire-2 microplate reader at 405 nm.

[3] = Table 4, dipeptide EDANS C-terminal modified substrates
[4] = Table 4, dipeptide EDANS substrates, normalized with compound 60
[5] = AENA substrates, linear rate of reporter generation at <50% completion, pH 5, 37° C.
[6] = AENA substrates, normalized with compound 60 velocity (average 123.8 nmol/h)

Sample Velocity [1, 3] [nmol/h]	Normalized Velocity [1, 4] [nmol/h]	Sample Velocity [1, 5] [nmol/h]	Normalized Velocity [1, 6] [nmol/h]	Substance	further results
7.9	7.2	–	–	H2N-A-PEG4-Glu(EDANS)-NH-(CH2)2-OH [Compound 59]	–
125.7	115.1	–	–	H2N-AP-PEG4-Glu(EDANS)-NH-(CH2)2-OH [Compound 55]	–
177.6	162.6	–	–	H2N-F(Nme)A-Glu(EDANS)-NH-(CH2)2-OH [Compound 51]	–
61.3	56.1	–	–	H2N-FA-PEG4-Glu(EDANS)-NH-(CH2)2-OH [Compound 56]	velocity of digestion, addition of phenylalanine [1]: substantial increase in the velocity of digestion
155.0	132.4	–	–	H2N-FL-PEG4-Glu(EDANS)-NH-(CH2)2-OH [Compound 54]	velocity of digestion, addition of phenylalanine [1]: substantial increase in the velocity of digestion
448.5	383.0	–	–	H2N-FP-PEG4-Glu(EDANS)-NH-(CH2)2-OH [Compound 48]	–
14.4	13.9	–	–	H2N-GP-PEG4-Glu(EDANS)-NH-(CH2)2-OH [Compound 58]	–
58.3	53.3	–	–	H2N-L-PEG4-Glu(EDANS)-NH-(CH2)2-OH [Compound 57]	–
349.1	338.7	–	–	H2N-LP-PEG4-Glu(EDANS)-NH-(CH2)2-OH [Compound 49]	–
156.5	151.9	–	–	H2N-NP-PEG4-Glu(EDANS)-NH-(CH2)2-OH [Compound 52]	–
145.0	140.7	–	–	H2N-SP-PEG4-Glu(EDANS)-NH-(CH2)2-OH [Compound 53]	–
213.5	195.5	–	–	H2N-VP-PEG4-Glu(EDANS)-NH-(CH2)2-OH [Compound 50]	–
–	–	1.6	1.6	NAG(OAc)3-AAA- AENA [Compound 41]	% Released at Endpoint (21 hr) [1]: 8.2%
–	–	3.7	3.9	NAG(OAc)3-CitAA- AENA [Compound 40]	% Released at Endpoint (21 hr) [1]: 15.6%
–	–	10.0	9.7	PEG12-GFLG- AENA [Compound 38]	% Released at Endpoint ([1]; endpoint at 24 hours): **47.8%

The remaining lines, values behind:

Substance	Sample Velocity [1, 3] [nmol/h]	Normalized Velocity [1, 4] [nmol/h]	Sample Velocity [1, 5] [nmol/h]	Normalized Velocity [1, 6] [nmol/h]	further results
NAG(OAc)3-ACA- AENA [Compound 43]	–	–	–	–	% Released at Endpoint (21 hr) [1]: 1.1%
NAG(OAc)3-ACitAA- AENA [Compound 35]	–	–	–	–	% Released at Endpoint (21 hr) [1]: 49.8%
NAG(OAc)3-CitAAA- AENA [Compound 36]	–	–	–	–	% Released at Endpoint ([1]; endpoint at 24 hours): **47.7%
NAG(OAc)3-FCitFA- AENA [Compound 39]	–	–	–	–	rate and time to completion of digestion, proline at A1 changed to alanine [1]: dramatic reduction in rate and time to completion of digestion; % Released at Endpoint (21 hr) [1]: 40.5%
NAG(OAc)3-FCitFP-AENA [Compound 22a]	–	–	–	–	rate of proteolytic digestion, influence of R5 ([1]; 22a vs 23, 22a vs 22b): essentially equivalent in terms of rate of proteolytic digestion; Velocity, Sample [1]: 244.9 nmol/h; Velocity, Normalized ([1]; normalized with compound 60): 210.5 nmol/h
NAG(OAc)3-FCitVP- AENA [Compound 26]	–	–	119.5	102.5	% Released at Endpoint (21 hr) [1]: 97.8%
NAG(OAc)3-VCitFP- AENA [Compound 28]	–	–	84.3	75.8	% Released at Endpoint ([1]; endpoint at 23 hours): *99.4%
NAG(OH)3-FCitAA- AENA [Compound 33]	–	–	–	–	rate and time to completion of digestion, proline at A1 changed to alanine [1]: dramatic reduction in rate and time to completion of digestion; % Released at Endpoint (21 hr) [1]: 68.5%
NAG(OH)3-FCitFP-AENA [Compound 22b]	–	–	–	–	Velocity, Sample [1]: 223.7 nmol/h; Velocity, Normalized ([1]; normalized with compound 60): 201.0 nmol/h
PEG12-ACitFP- AENA [Compound 31]	–	–	49.5	49.6	% Released at Endpoint ([1]; endpoint at 23 hours): *98.9%
PEG12-FCitF(Nme)A- AENA [Compound 29]	–	–	62.5	62.6	rate and completion of digestion, N-methylation at A1 ([1]; 29 vs 39): faster rate and faster completion of digestion; % Released at Endpoint ([1]; endpoint at 23 hours): *97.3%
PEG12-FCitFL- AENA [Compound 27]	–	–	94.5	94.7	% Released at Endpoint ([1]; endpoint at 24 hours): **99.7%
PEG12-FDFP- AENA [Compound 34b]	–	–	18.0	16.6	% Released at Endpoint ([1]; endpoint at 26 hours): ***66.5%
PEG12-FKFL- AENA [Compound 25b]	–	–	117.0	117.4	% Released at Endpoint ([1]; endpoint at 24 hours): **99.8%
PEG12-FKFP- AENA [Compound 24b]	–	–	134.8	123.9	velocity, proline vs leucine at A1 ([1]; 23 vs 27, 24b vs 25b): small increase in velocity; % Released at Endpoint ([1]; endpoint at 26 hours): ***98.9%
PEG12-FNFP- AENA [Compound 32b]	–	–	42.0	38.6	% Released at Endpoint ([1]; endpoint at 26 hours): ***99.3%
PEG-ACitAP-OSu [Compound 46]	–	–	–	–	effectiveness as modifying agent in DPC-mediated siRNA delivery [2]: effective modifying agents; Relative F VII activity [2]: 66 ± 28
PEG-CitAP-OSu [Compound 47]	–	–	–	–	Relative F VII activity [2]: 97 ± 34
PEG-FCitAP-OSu [Compound 45b]	–	–	–	–	effectiveness as modifying agent in DPC-mediated siRNA delivery [2]: effective modifying agents; Relative F VII activity [2]: 40 ± 06
